Source: ChEMBL document CHEMBL4387729, “Synthesis and structure-activity relationship of 4-alkoxy-thieno[2,3-b]pyridine derivatives as potent alkaline phosphatase enhancers for osteoporosis treatment” (Bioorg Med Chem Lett, 2019)
≈ marks a conversion by molar mass, not a printed value. Calls of active or inactive are those of the source. No cut-off for these calls is given here.

Tests used:
[1] = target: T1, Alkaline phosphatase, tissue-nonspecific isozyme (Mus musculus) (UniProt P09242); experiment: Induction of alkaline phosphatase activity in mouse ST-2 cells after 4 days by spectrophotometric method; type: cell-based
T1 sequence (whole entry): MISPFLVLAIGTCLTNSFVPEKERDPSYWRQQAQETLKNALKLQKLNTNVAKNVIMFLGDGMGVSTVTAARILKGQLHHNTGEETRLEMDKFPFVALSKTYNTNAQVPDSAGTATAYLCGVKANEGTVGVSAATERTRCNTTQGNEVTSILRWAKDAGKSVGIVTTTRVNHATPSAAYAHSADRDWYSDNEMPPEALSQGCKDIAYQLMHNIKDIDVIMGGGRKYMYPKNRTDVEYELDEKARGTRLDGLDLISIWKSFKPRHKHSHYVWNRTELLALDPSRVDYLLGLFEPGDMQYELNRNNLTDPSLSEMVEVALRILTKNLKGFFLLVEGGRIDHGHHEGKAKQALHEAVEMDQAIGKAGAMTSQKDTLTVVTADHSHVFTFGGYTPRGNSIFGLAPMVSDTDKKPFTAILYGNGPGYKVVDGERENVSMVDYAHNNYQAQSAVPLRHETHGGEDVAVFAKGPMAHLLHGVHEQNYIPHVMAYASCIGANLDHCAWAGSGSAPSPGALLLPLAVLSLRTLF

[2] = Metabolic stability in rat liver microsomes assessed as parent compound remaining after 30 mins; type: ADME, Microsome; conditions: read-out: Stability
[3] = Cmax in F344 rat at 60 mg/kg, po; type: ADME, organism-based; set-up: dose 60 mg/kg, route oral; conditions: in vivo
[4] = Solubility of the compound in pH 6.8 JP2 solution; type: physicochemical
CYP2C19 = CYP2C19 (Homo sapiens, UniProt P33261); experiment: Inhibition of CYP2C19 (unknown origin) at 10 uM relative to control; type: ADME
CYP3A4 [5] = target: T2, CYP3A4 (Homo sapiens, UniProt P08684); experiment: in vitro
CYP3A4 [6] = target: T2, CYP3A4; experiment: in vitro; conditions: human liver microsomes
Description: Time dependent inhibition of CYP3A4 in human liver microsomes assessed as enzyme residual activity at 100 uM relative to control

CYP1A2 = target: T3, CYP1A2 (Homo sapiens, UniProt P05177); experiment: Inhibition of CYP1A2 (unknown origin) at 10 uM relative to control; type: ADME
T3 sequence (P05177 whole entry): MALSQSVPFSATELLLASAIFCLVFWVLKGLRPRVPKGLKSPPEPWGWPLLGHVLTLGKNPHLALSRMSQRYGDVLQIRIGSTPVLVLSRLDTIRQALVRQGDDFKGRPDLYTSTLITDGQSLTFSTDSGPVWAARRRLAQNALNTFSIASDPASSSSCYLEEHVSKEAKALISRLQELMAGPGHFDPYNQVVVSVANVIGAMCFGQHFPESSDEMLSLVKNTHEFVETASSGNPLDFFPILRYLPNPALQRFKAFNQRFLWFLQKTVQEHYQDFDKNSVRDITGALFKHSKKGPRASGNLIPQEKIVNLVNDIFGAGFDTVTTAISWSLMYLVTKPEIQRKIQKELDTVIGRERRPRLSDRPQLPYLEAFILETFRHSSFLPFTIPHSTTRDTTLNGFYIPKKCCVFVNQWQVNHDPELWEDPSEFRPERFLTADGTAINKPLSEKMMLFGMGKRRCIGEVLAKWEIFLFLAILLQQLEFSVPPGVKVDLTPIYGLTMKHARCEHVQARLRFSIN

CYP2D6 = CYP2D6 (Homo sapiens, UniProt P10635); experiment: Inhibition of CYP2D6 (unknown origin) at 10 uM relative to control; type: ADME
[7] = AUC (0 to 8 hrs) in F344 rat at 60 mg/kg, po; type: ADME, organism-based; set-up: time < 8 hr, dose 60 mg/kg, route oral; conditions: in vivo
CYP2C9 = CYP2C9 (Homo sapiens, UniProt P11712); experiment: Inhibition of CYP2C9 (unknown origin) at 10 uM relative to control; type: ADME
[8] = Metabolic stability in human liver microsomes assessed as parent compound remaining after 30 mins; type: ADME, Microsome; conditions: read-out: Stability
Rattus norvegicus [9] = experiment: Bone anabolic activity in ovariectomized F344 rat assessed as increase in areal bone mineral density in total femur at 30 mg/kg/day, po administered for 5 weeks measured post-last dose by dual energy X-ray absorptiometry; type: functional, organism-based
Rattus norvegicus [10] = experiment: Bone anabolic activity in ovariectomized F344 rat assessed as increase in areal bone mineral density in distal femur at 30 mg/kg/day, po administered for 5 weeks measured post-last dose by dual energy X-ray absorptiometry; type: functional, organism-based
Rattus norvegicus [11] = experiment: Bone anabolic activity in ovariectomized F344 rat assessed as increase in areal bone mineral density in proximal femur at 30 mg/kg/day, po administered for 5 weeks measured post-last dose by dual energy X-ray absorptiometry; type: functional, organism-based
[12] = AUC (0 to 8 hrs) in F344 rat at 30 mg/kg, po; type: ADME, organism-based; set-up: time < 8 hr, dose 30 mg/kg, route oral; conditions: in vivo
[13] = Cmax in F344 rat at 30 mg/kg, po; type: ADME, organism-based; set-up: dose 30 mg/kg, route oral; conditions: in vivo

CYP2C9, sequence (P11712 whole entry): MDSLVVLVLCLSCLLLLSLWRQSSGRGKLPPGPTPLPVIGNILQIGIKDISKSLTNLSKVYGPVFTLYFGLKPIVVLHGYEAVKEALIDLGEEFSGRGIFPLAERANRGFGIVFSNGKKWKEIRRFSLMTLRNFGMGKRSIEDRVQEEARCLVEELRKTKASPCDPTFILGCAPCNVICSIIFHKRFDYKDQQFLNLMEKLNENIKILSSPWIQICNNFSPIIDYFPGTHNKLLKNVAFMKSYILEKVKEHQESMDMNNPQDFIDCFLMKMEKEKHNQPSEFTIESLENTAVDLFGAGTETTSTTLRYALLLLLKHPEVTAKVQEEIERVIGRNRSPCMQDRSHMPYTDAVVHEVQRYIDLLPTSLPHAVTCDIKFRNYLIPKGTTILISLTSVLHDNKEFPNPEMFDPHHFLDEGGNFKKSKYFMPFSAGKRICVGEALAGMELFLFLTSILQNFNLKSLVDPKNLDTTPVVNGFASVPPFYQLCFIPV
CYP2C19, sequence (P33261 whole entry): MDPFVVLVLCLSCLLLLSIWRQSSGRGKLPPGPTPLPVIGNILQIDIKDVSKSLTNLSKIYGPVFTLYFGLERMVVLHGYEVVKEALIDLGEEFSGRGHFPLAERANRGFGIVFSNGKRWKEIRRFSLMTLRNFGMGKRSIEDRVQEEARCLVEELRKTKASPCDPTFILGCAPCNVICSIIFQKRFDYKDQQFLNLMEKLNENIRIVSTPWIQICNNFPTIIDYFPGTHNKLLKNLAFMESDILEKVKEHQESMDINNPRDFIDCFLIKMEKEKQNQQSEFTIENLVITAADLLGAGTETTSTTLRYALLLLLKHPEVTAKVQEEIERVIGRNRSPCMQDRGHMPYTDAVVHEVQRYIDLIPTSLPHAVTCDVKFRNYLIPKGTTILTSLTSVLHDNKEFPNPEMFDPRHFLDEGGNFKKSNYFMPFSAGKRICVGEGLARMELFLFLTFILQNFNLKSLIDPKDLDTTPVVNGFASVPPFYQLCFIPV
T2 sequence (P08684 whole entry): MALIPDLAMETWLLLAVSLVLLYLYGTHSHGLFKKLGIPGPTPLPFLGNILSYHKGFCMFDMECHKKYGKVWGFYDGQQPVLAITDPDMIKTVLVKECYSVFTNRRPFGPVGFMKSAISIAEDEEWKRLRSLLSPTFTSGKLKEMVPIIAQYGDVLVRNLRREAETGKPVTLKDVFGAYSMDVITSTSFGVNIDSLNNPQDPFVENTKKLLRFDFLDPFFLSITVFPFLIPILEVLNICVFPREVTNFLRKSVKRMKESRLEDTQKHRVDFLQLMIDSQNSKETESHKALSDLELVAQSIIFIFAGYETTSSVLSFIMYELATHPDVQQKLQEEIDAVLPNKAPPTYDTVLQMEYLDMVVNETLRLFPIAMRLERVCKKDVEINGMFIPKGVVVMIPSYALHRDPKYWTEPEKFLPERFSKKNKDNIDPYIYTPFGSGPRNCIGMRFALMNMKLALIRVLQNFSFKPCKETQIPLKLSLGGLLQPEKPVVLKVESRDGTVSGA
CYP2D6, sequence (P10635 whole entry): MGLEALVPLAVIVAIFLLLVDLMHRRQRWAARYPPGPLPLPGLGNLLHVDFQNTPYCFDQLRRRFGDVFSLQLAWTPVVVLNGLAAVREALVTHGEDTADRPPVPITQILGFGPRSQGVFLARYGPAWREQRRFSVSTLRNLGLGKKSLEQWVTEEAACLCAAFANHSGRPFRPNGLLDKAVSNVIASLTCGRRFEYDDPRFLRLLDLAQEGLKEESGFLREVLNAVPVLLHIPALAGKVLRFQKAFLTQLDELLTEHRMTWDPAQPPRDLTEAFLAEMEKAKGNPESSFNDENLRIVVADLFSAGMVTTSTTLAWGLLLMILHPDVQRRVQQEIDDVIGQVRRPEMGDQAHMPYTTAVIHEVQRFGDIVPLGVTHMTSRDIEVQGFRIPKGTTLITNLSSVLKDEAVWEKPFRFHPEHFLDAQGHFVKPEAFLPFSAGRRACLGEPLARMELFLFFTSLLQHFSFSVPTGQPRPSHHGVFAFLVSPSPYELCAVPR

CC[C@H]1CC[C@H](Oc2ccnc3sc(C(N)=O)c(N)c23)CC1
EC200 [1]: > 0.3 µg/mL

Cc1cc(Oc2ccc(CCCC(=O)N(C)C)cc2)c2c(N)c(C(N)=O)sc2n1
EC200 [1]: 0.0011 µg/mL

CCc1ccccc1Oc1ccnc2sc(C(N)=O)c(N)c12
EC200 [1]: 0.201 µg/mL

CC(C)Oc1ccnc2sc(C(N)=O)c(N)c12
EC200 [1]: 0.72 µg/mL

CN(C)C(=O)CCCc1ccc(Oc2ccnc3sc(C(N)=O)c(N)c23)cc1
EC200 [1]: 0.004 µg/mL

NC(=O)c1sc2nccc(Oc3ccc(CCO)cc3)c2c1N
remaining at 0.5 h [2]: 75% | Cmax [3]: 1540 ng/mL | solubility [4]: 39 µg/mL (≈ 118 µM) | inhibition at 10 µM (CYP2C19): 8% | inhibition at 10 µM (CYP3A4 [5]): 0% | activity at 100 µM (CYP3A4 [6]): 88% | EC200 [1]: 0.025 µg/mL | inhibition at 10 µM (CYP1A2): 1% | inhibition at 10 µM (CYP2D6): 3% | AUC(0-t) at 8 h [7]: 3580 ng·h/mL | inhibition at 10 µM (CYP2C9): 7% | remaining at 0.5 h [8]: 93%

NC(=O)c1sc2nccc(N3CCCN(c4ccccc4)CC3)c2c1N
inhibition at 10 µM (CYP2C19): 96% | inhibition at 10 µM (CYP3A4 [5]): 49% | activity at 100 µM (CYP3A4 [6]): 28% | inhibition at 10 µM (CYP1A2): 14% | inhibition at 10 µM (CYP2D6): 34% | inhibition at 10 µM (CYP2C9): 71%

NC(=O)c1sc2nccc(OC3CCOCC3)c2c1N
remaining at 0.5 h [2]: 85% | Activity (Rattus norvegicus [9]): Active | Activity (Rattus norvegicus [10]): Active | Activity (Rattus norvegicus [11]): Active | solubility [4]: 180 µg/mL (≈ 614 µM) | AUC(0-t) at 8 h [12]: 29800 ng·h/mL | inhibition at 10 µM (CYP2C19): 1% | inhibition at 10 µM (CYP3A4 [5]): 2% | activity at 100 µM (CYP3A4 [6]): 89% | EC200 [1]: 0.25 µg/mL | Cmax [13]: 10400 ng/mL | inhibition at 10 µM (CYP1A2): 11% | inhibition at 10 µM (CYP2D6): 0% | inhibition at 10 µM (CYP2C9): 1% | remaining at 0.5 h [8]: 92%

NC(=O)c1sc2nccc(Oc3ccc(Cl)cc3)c2c1N
EC200 [1]: 0.021 µg/mL

Cc1cc(Oc2ccc(CCCC(=O)N(C)C)cc2Cl)c2c(N)c(C(N)=O)sc2n1
remaining at 0.5 h [2]: 11% | solubility [4]: 0.2 µg/mL (≈ 0.447 µM) | inhibition at 10 µM (CYP2C19): 11% | inhibition at 10 µM (CYP3A4 [5]): 40% | activity at 100 µM (CYP3A4 [6]): 25% | EC200 [1]: 0.0004 µg/mL | inhibition at 10 µM (CYP1A2): 6% | inhibition at 10 µM (CYP2D6): 15% | inhibition at 10 µM (CYP2C9): 30% | remaining at 0.5 h [8]: 25%

N#Cc1ccc(Oc2ccnc3sc(C(N)=O)c(N)c23)cc1
EC200 [1]: 0.227 µg/mL

C[C@H]1COCC[C@@H]1Oc1ccnc2sc(C(N)=O)c(N)c12
EC200 [1]: 0.27 µg/mL

CN(C)CCc1ccc(Oc2ccnc3sc(C(N)=O)c(N)c23)cc1
EC200 [1]: 0.058 µg/mL

C[C@H]1CC[C@@H](Oc2ccnc3sc(C(N)=O)c(N)c23)CC1
EC200 [1]: > 1 µg/mL

C[C@H]1CC[C@H](Oc2ccnc3sc(C(N)=O)c(N)c23)CC1
EC200 [1]: 0.037 µg/mL

COc1ccnc2sc(C(N)=O)c(N)c12
EC200 [1]: > 1 µg/mL

NC(=O)c1sc2nccc(SC3CCCCC3)c2c1N
EC200 [1]: > 1 µg/mL

C[C@@H]1CCC[C@H](Oc2ccnc3sc(C(N)=O)c(N)c23)C1 (relative stereo)
EC200 [1]: > 1 µg/mL

NC(=O)c1sc2nccc(Oc3ccc(Cl)cc3Cl)c2c1N
EC200 [1]: 0.014 µg/mL

CN(C)C(=O)COc1ccc(Oc2ccnc3sc(C(N)=O)c(N)c23)cc1
EC200 [1]: 0.023 µg/mL

CN1CCC(Oc2ccnc3sc(C(N)=O)c(N)c23)CC1
EC200 [1]: > 1 µg/mL

NC(=O)c1sc2nccc(Oc3ccccc3F)c2c1N
EC200 [1]: 0.022 µg/mL

CCOc1ccnc2sc(C(N)=O)c(N)c12
EC200 [1]: 0.27 µg/mL

CN(C)C(=O)c1ccc(Oc2ccnc3sc(C(N)=O)c(N)c23)cc1
EC200 [1]: > 0.3 µg/mL

NC(=O)c1sc2nccc(Oc3cccc(Cl)c3)c2c1N
EC200 [1]: 0.149 µg/mL

C[C@H]1CCCC[C@@H]1Oc1ccnc2sc(C(N)=O)c(N)c12 (relative stereo)
remaining at 0.5 h [2]: 7% | solubility [4]: 42 µg/mL (≈ 138 µM) | EC200 [1]: 0.045 µg/mL | remaining at 0.5 h [8]: 20%

COc1ccc(Oc2ccnc3sc(C(N)=O)c(N)c23)c(Cl)c1
EC200 [1]: 0.008 µg/mL

CCc1ccc(Oc2ccnc3sc(C(N)=O)c(N)c23)cc1
EC200 [1]: 0.036 µg/mL

NC(=O)c1sc2nccc(Oc3ccccc3)c2c1N
remaining at 0.5 h [2]: 36% | solubility [4]: 6.6 µg/mL (≈ 23.1 µM) | inhibition at 10 µM (CYP2C19): 15% | inhibition at 10 µM (CYP3A4 [5]): 9% | activity at 100 µM (CYP3A4 [6]): 93% | EC200 [1]: 0.046 µg/mL | inhibition at 10 µM (CYP1A2): 41% | inhibition at 10 µM (CYP2D6): 5% | inhibition at 10 µM (CYP2C9): 13% | remaining at 0.5 h [8]: 11%

Cc1cc(Oc2ccc(CCCC(=O)N(C)C)cc2F)c2c(N)c(C(N)=O)sc2n1
remaining at 0.5 h [2]: 12% | Cmax [3]: 96 ng/mL | solubility [4]: 0.3 µg/mL (≈ 0.697 µM) | inhibition at 10 µM (CYP2C19): 10% | inhibition at 10 µM (CYP3A4 [5]): 20% | activity at 100 µM (CYP3A4 [6]): 47% | EC200 [1]: 0.0005 µg/mL | inhibition at 10 µM (CYP1A2): 10% | inhibition at 10 µM (CYP2D6): 10% | AUC(0-t) at 8 h [7]: 591 ng·h/mL | inhibition at 10 µM (CYP2C9): 17% | remaining at 0.5 h [8]: 60%

COc1ccc(Oc2ccnc3sc(C(N)=O)c(N)c23)cc1
EC200 [1]: 0.02 µg/mL

COC(=O)c1ccc(Oc2ccnc3sc(C(N)=O)c(N)c23)cc1
EC200 [1]: 0.09 µg/mL

CN(C)C(=O)CCc1ccc(Oc2ccnc3sc(C(N)=O)c(N)c23)cc1
EC200 [1]: 0.01 µg/mL

COc1ccccc1Oc1ccnc2sc(C(N)=O)c(N)c12
EC200 [1]: 0.114 µg/mL

CC(C)c1ccc(Oc2ccnc3sc(C(N)=O)c(N)c23)cc1
EC200 [1]: > 0.3 µg/mL

NC(=O)c1sc2nccc(OC3CCCCC3)c2c1N
remaining at 0.5 h [2]: 2% | solubility [4]: 28 µg/mL (≈ 96.1 µM) | EC200 [1]: 0.14 µg/mL | remaining at 0.5 h [8]: 1%

CN(C)c1ccnc2sc(C(N)=O)c(N)c12
inhibition at 10 µM (CYP2C19): 0% | inhibition at 10 µM (CYP3A4 [5]): 0% | EC200 [1]: 0.17 µg/mL | inhibition at 10 µM (CYP1A2): 61% | inhibition at 10 µM (CYP2D6): 1% | inhibition at 10 µM (CYP2C9): 0%

NC(=O)c1sc2nccc(Oc3ccccc3Cl)c2c1N
EC200 [1]: 0.008 µg/mL
